Among the test systems are CAKI-1; DLD-1; EKVX; HCC 2998; HCT-15; HL-60; HOP-62; IGROV-1; K562; LOX IMVI; MCF7; NCI-H460; NCI-H522; OVCAR-8; SF-295; SK-MEL-28; SNB-19; U-251; UACC-257; UO-31.
What all share (assay): DTP human tumour cell line panel, 48 h

The text below walks through data of ChEMBL document CHEMBL1201862, “PubChem BioAssay data set” (2004).

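Interpolation was linear, between the two tested concentrations surrounding the appropriate level; five concentrations were tested over 48 hours in 96-well plates. GI50 = concentration required for 50% inhibition of growth.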 Active and inactive are the calls of the source. No stated cut-off is given here; in the data, active = GI50 up to about 1.1 µM and inactive = higher. A value given as a limit tells only on which side of the number the result lay.

Regarding `CCOC(=O)CNC(=O)N(CC)C12CC3CC(CC(C3)C1)C2`, the GI50 in the test on CAKI-1 was 147 µM (inactive); in the test on DLD-1, 34.7 µM (inactive); with EKVX, 157 µM (inactive); in the test on HCC 2998, 158 µM (inactive); in the test on HCT-15, 115 µM; with HL-60 it was 107 µM (inactive). Besides, the GI50 in the test on HOP-62 is 128 µM (inactive); with IGROV-1, 184 µM (inactive); in the test on K562, 122 µM (inactive); with LOX IMVI, 115 µM (inactive); in the test on MCF7 it was 148 µM (inactive); in the test with NCI-H460, 154 µM (inactive). Moreover, the GI50 in the test on NCI-H522 was 123 µM (inactive); with OVCAR-8, 150 µM (inactive); in the test with SF-295, 136 µM (inactive); in the test with SK-MEL-28 it was 206 µM (inactive); with SNB-19, 153 µM (inactive); in the test with U-251 it was 119 µM (inactive). The GI50 was 122 µM (inactive) in the test on UACC-257 and 149 µM (inactive) in the test on UO-31.
Turning to `O=C1c2cccc3cc4ccccc4c(c23)C(=O)N1CCNCCN1C(=O)c2cccc3cc4ccccc4c(c23)C1=O`, the GI50 was 0.245 µM (active) in the test with CAKI-1; 0.714 µM (active) in the test on DLD-1; 0.587 µM (active) with EKVX; 0.912 µM (active) in the test on HCC 2998; 0.309 µM with HCT-15; 0.178 µM (active) in the test on HL-60. In addition, the GI50 with HOP-62 is 1.04 µM (active); in the test with IGROV-1, 0.589 µM (active); in the test with K562 it was 0.301 µM (active); with LOX IMVI, 0.233 µM (active); in the test with MCF7 it was 0.282 µM (active); in the test on NCI-H460 it was 0.0541 µM (active). In addition, the GI50 in the test with NCI-H522 is 1.53 µM (inactive); with OVCAR-8, 0.357 µM (active); with SF-295, 0.243 µM (active); in the test with SK-MEL-28, 0.592 µM (active); in the test on SNB-19, 0.39 µM (active); with U-251, 0.282 µM (active). Moreover, the GI50 was 1.27 µM (inactive) in the test with UACC-257 and 0.277 µM (active) with UO-31.
On to `CSc1sc(=S)sc1SC`, for which the GI50 with CAKI-1 was 1 µM (active); with DLD-1, > 100 µM (inactive); with EKVX, > 100 µM (inactive); with HCC 2998, > 100 µM (inactive); in the test with HCT-15, > 100 µM; with HL-60, > 31.6 µM (inactive). In addition, the GI50 with HOP-62, in the test on IGROV-1, in the test on K562, in the test with LOX IMVI, with MCF7 and in the test with NCI-H460 was > 100 µM (inactive) each time. Further, the GI50 in the test with NCI-H522, in the test on OVCAR-8, in the test on SF-295, in the test with SK-MEL-28, in the test with SNB-19 and in the test on U-251 was > 100 µM (inactive) each time. Moreover, the GI50 with UACC-257 and in the test on UO-31 was > 100 µM (inactive) each time.
In the case of `C=C1C(=O)OC2CC(C)C3C4OC4C(O)C3(C)C(O)C12` (stereo not given), the GI50 was 22.8 µM (inactive) with CAKI-1; 27.3 µM (inactive) in the test with DLD-1; 20 µM (inactive) in the test with EKVX; 30.8 µM (inactive) in the test on HCC 2998; 22.8 µM with HCT-15; 13.8 µM (inactive) in the test with HL-60. Moreover, the GI50 in the test on HOP-62 is 68.9 µM (inactive); in the test on IGROV-1 it was 18.6 µM (inactive); in the test on K562 it was 20.6 µM (inactive); in the test on LOX IMVI, 14 µM (inactive); with MCF7, 20.7 µM (inactive); in the test on NCI-H460, 19 µM (inactive). Further, the GI50 is 9.42 µM (inactive) with NCI-H522; 28.4 µM (inactive) in the test on OVCAR-8; 41 µM (inactive) with SF-295; 23.6 µM (inactive) in the test with SK-MEL-28; 44.7 µM (inactive) with SNB-19; 43.2 µM (inactive) with U-251. The results for the GI50 in the test with UACC-257 and with UO-31 were 37.8 µM (inactive) and 80.2 µM (inactive), respectively.
With `CCC1OC(=O)C(C)C(OC2CC(C)(O)C(O)C(C)O2)C(C)C(O)C(C)(O)CC(C)C(=O)C(C)C(O)C1C` (stereo not given), the GI50 in the test with CAKI-1 was > 300 µM (inactive); in the test with DLD-1 it was > 300 µM (inactive); in the test on EKVX, > 300 µM (inactive); with HCC 2998, > 300 µM (inactive); with HCT-15, > 300 µM; in the test on HL-60, > 300 µM (inactive). For the same compound, the GI50 is 299 µM (inactive) in the test on HOP-62; > 300 µM (inactive) in the test on IGROV-1; > 300 µM (inactive) in the test on K562; > 300 µM (inactive) in the test on LOX IMVI; > 300 µM (inactive) in the test on MCF7; > 300 µM (inactive) with NCI-H460. Also, the GI50 in the test with NCI-H522, with OVCAR-8, in the test with SF-295, in the test with SK-MEL-28, in the test with SNB-19 and in the test with U-251 was > 300 µM (inactive) in each case. Further, the GI50 in the test with UACC-257 and in the test with UO-31 was > 300 µM (inactive) throughout.
Consider `CCC/C=C/C=C\C(=O)O[C@@H]1[C@@H](C)[C@]2(O)[C@@H]3C=C(C)C(=O)[C@H]3CC(COC(C)=O)=C[C@H]2[C@@H]2C(C)(C)[C@]12OC(C)=O`, for which the GI50 in the test with CAKI-1 was 26.1 µM (inactive); in the test on DLD-1 it was 16.7 µM (inactive); with EKVX it was 49.9 µM (inactive); in the test on HCC 2998 it was 14.8 µM (inactive); in the test with HCT-15 it was 28.6 µM; with HL-60, 2.33 µM (inactive). Further, the GI50 is 1.89 µM (inactive) in the test on HOP-62; 48.4 µM (inactive) with IGROV-1; 2.49 µM (inactive) with K562; 16.8 µM (inactive) in the test with LOX IMVI; 37.8 µM (inactive) with MCF7; 1.61 µM (inactive) in the test with NCI-H460. The GI50 with NCI-H522 was 27.7 µM (inactive); in the test on OVCAR-8, 40.7 µM (inactive); with SF-295 it was 6.64 µM (inactive); with SK-MEL-28 it was 39.4 µM (inactive); with SNB-19 it was 54.1 µM (inactive); in the test on U-251 it was 17.6 µM (inactive). For the same compound, the GI50 with UACC-257 is 42.9 µM (inactive); in the test with UO-31 it was 46.5 µM (inactive).

Broadly, the GI50 is the concentration that inhibits growth by half.
